Test results published in ChEMBL document CHEMBL1201861, “Genomics of Drug Sensitity in Cancer screening data, Wellcome Trust Sanger Institute”.

System: COLO-792
Experiment: cells
Type: functional, cell-based
Conditions: Homo sapiens
Description: SANGER: Inhibition of human COLO-792 cell growth in a cell viability assay.

| SMILES | IC50 [nM] |
| --- | --- |
| CN(NC(=O)CC(=O)NN(C)C(=S)c1ccccc1)C(=S)c1ccccc1 [ELESCLOMOL] | 28.8 |

System: COR-L105;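 also: cell growth inhibition determined with a viability assay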
Experiment: cells
Type: functional, cell-based
Conditions: Homo sapiens
Description: SANGER: Inhibition of human COR-L105 cell growth in a cell viability assay.

| SMILES | IC50 [nM] |
| --- | --- |
| CN(NC(=O)CC(=O)NN(C)C(=S)c1ccccc1)C(=S)c1ccccc1 [ELESCLOMOL] | 6.76 |

System: CP50-MEL-B;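 also: growth inhibition of the human cell line, measured with a cell viability read-out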
Experiment: cells
Type: functional, cell-based
Conditions: Homo sapiens
Description: SANGER: Inhibition of human CP50-MEL-B cell growth in a cell viability assay.

| SMILES | IC50 [nM] |
| --- | --- |
| CN(NC(=O)CC(=O)NN(C)C(=S)c1ccccc1)C(=S)c1ccccc1 [ELESCLOMOL] | 8.63 |

System: CP66-MEL;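 also: growth inhibition of CP66-MEL cells determined in a cell viability assay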
Experiment: cells
Type: functional, cell-based
Conditions: Homo sapiens
Description: SANGER: Inhibition of human CP66-MEL cell growth in a cell viability assay.

| SMILES | IC50 [nM] |
| --- | --- |
| CN(NC(=O)CC(=O)NN(C)C(=S)c1ccccc1)C(=S)c1ccccc1 [ELESCLOMOL] | 55.1 |

System: D-336MG
Experiment: cells
Type: functional, cell-based, Homo sapiens
Conditions: Homo sapiens, D-336MG
Description: SANGER: Inhibition of human D-336MG cell growth in a cell viability assay.

| SMILES | IC50 [nM] |
| --- | --- |
| CN(NC(=O)CC(=O)NN(C)C(=S)c1ccccc1)C(=S)c1ccccc1 [ELESCLOMOL] | 23.4 |

System: DBTRG-05MG;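 also: cell viability assay measuring growth inhibition of human DBTRG-05MG cells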
Experiment: cells
Type: functional, cell-based
Conditions: Homo sapiens
Description: SANGER: Inhibition of human DBTRG-05MG cell growth in a cell viability assay.

| SMILES | IC50 [nM] |
| --- | --- |
| CN(NC(=O)CC(=O)NN(C)C(=S)c1ccccc1)C(=S)c1ccccc1 [ELESCLOMOL] | 9.77 |

System: ESS-1;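 also: growth inhibition of human ESS-1 cells, read out by a cell viability assay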
Experiment: cells
Type: functional, cell-based
Conditions: Homo sapiens
Description: SANGER: Inhibition of human ESS-1 cell growth in a cell viability assay.

| SMILES | IC50 [nM] |
| --- | --- |
| CN(NC(=O)CC(=O)NN(C)C(=S)c1ccccc1)C(=S)c1ccccc1 [ELESCLOMOL] | 102 |

System: G-361
Experiment: cells
Type: functional, cell-based
Conditions: Homo sapiens

| SMILES | IC50 [nM] |
| --- | --- |
| CN(NC(=O)CC(=O)NN(C)C(=S)c1ccccc1)C(=S)c1ccccc1 [ELESCLOMOL] | 27.5 |

System: GMS-10;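 also: growth inhibition of GMS-10 cells, read out as cell viability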
Experiment: cells
Type: functional, cell-based
Conditions: Homo sapiens
Description: SANGER: Inhibition of human GMS-10 cell growth in a cell viability assay.

| SMILES | IC50 [nM] |
| --- | --- |
| CN(NC(=O)CC(=O)NN(C)C(=S)c1ccccc1)C(=S)c1ccccc1 [ELESCLOMOL] | 107 |

System: HCC1419;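 also: growth inhibition of human HCC1419 cells, read out as cell viability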
Experiment: cells
Type: functional, cell-based
Conditions: Homo sapiens
Description: SANGER: Inhibition of human HCC1419 cell growth in a cell viability assay.

| SMILES | IC50 [nM] |
| --- | --- |
| CN(NC(=O)CC(=O)NN(C)C(=S)c1ccccc1)C(=S)c1ccccc1 [ELESCLOMOL] | 19.6 |

System: HSC-4;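 also: growth inhibition of human HSC-4 cells, read out with a cell viability assay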
Experiment: cells
Type: functional, cell-based
Conditions: Homo sapiens
Description: SANGER: Inhibition of human HSC-4 cell growth in a cell viability assay.

| SMILES | IC50 [nM] |
| --- | --- |
| CN(NC(=O)CC(=O)NN(C)C(=S)c1ccccc1)C(=S)c1ccccc1 [ELESCLOMOL] | 4.8 |

System: HT-1080
Experiment: cells
Type: functional, cell-based
Conditions: Homo sapiens
Description: SANGER: Inhibition of human HT-1080 cell growth in a cell viability assay.

| SMILES | IC50 [nM] |
| --- | --- |
| CN(NC(=O)CC(=O)NN(C)C(=S)c1ccccc1)C(=S)c1ccccc1 [ELESCLOMOL] | 4.99 |

System: Hs-578T
Experiment: cells
Type: functional, cell-based
Conditions: Homo sapiens
Description: SANGER: Inhibition of human Hs-578-T cell growth in a cell viability assay.

| SMILES | IC50 [nM] |
| --- | --- |
| CN(NC(=O)CC(=O)NN(C)C(=S)c1ccccc1)C(=S)c1ccccc1 [ELESCLOMOL] | 15.5 |

System: HuO9;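 also: growth inhibition of HuO9 cells, read out with a cell viability assay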
Experiment: cells
Type: functional, cell-based
Conditions: Homo sapiens
Description: SANGER: Inhibition of human HuO9 cell growth in a cell viability assay.

| SMILES | IC50 [nM] |
| --- | --- |
| CN(NC(=O)CC(=O)NN(C)C(=S)c1ccccc1)C(=S)c1ccccc1 [ELESCLOMOL] | 21.5 |

System: KOSC-2;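 also: growth inhibition of KOSC-2 cells, read out by a cell viability assay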
Experiment: cells
Type: functional, cell-based
Conditions: Homo sapiens
Description: SANGER: Inhibition of human KOSC-2 cell growth in a cell viability assay.

| SMILES | IC50 [nM] |
| --- | --- |
| CN(NC(=O)CC(=O)NN(C)C(=S)c1ccccc1)C(=S)c1ccccc1 [ELESCLOMOL] | 5.45 |

System: KYSE-180;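 also: growth inhibition of KYSE-180 cells, read out with a cell viability assay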
Experiment: cells
Type: functional, cell-based
Conditions: Homo sapiens
Description: SANGER: Inhibition of human KYSE-180 cell growth in a cell viability assay.

| SMILES | IC50 [nM] |
| --- | --- |
| CN(NC(=O)CC(=O)NN(C)C(=S)c1ccccc1)C(=S)c1ccccc1 [ELESCLOMOL] | 23.8 |

System: KYSE-410;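 also: growth inhibition of KYSE-410 cells, measured through a cell viability readout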
Experiment: cells
Type: functional, cell-based
Conditions: Homo sapiens
Description: SANGER: Inhibition of human KYSE-410 cell growth in a cell viability assay.

| SMILES | IC50 [nM] |
| --- | --- |
| CN(NC(=O)CC(=O)NN(C)C(=S)c1ccccc1)C(=S)c1ccccc1 [ELESCLOMOL] | 19.7 |

System: KYSE-450;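 also: cell growth inhibition measured by a viability assay in human KYSE-450 cells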
Experiment: cells
Type: functional, cell-based
Conditions: Homo sapiens
Description: SANGER: Inhibition of human KYSE-450 cell growth in a cell viability assay.

| SMILES | IC50 [nM] |
| --- | --- |
| CN(NC(=O)CC(=O)NN(C)C(=S)c1ccccc1)C(=S)c1ccccc1 [ELESCLOMOL] | 39 |

System: MDA-MB-175-VII
Experiment: cells
Type: functional, cell-based
Conditions: Homo sapiens

| SMILES | IC50 [nM] |
| --- | --- |
| CN(NC(=O)CC(=O)NN(C)C(=S)c1ccccc1)C(=S)c1ccccc1 [ELESCLOMOL] | > 200 |

System: MDA-MB-361
Experiment: cells
Type: functional, cell-based
Conditions: Homo sapiens

| SMILES | IC50 [nM] |
| --- | --- |
| CN(NC(=O)CC(=O)NN(C)C(=S)c1ccccc1)C(=S)c1ccccc1 [ELESCLOMOL] | 25.9 |

System: MDA-MB-415
Experiment: cells
Type: functional, cell-based
Conditions: Homo sapiens

| SMILES | IC50 [nM] |
| --- | --- |
| CN(NC(=O)CC(=O)NN(C)C(=S)c1ccccc1)C(=S)c1ccccc1 [ELESCLOMOL] | 137 |

System: NCI-H1563;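 also: growth inhibition of human NCI-H1563 cells, read out with a cell viability assay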
Experiment: cells
Type: functional, cell-based
Conditions: Homo sapiens
Description: SANGER: Inhibition of human NCI-H1563 cell growth in a cell viability assay.

| SMILES | IC50 [nM] |
| --- | --- |
| CN(NC(=O)CC(=O)NN(C)C(=S)c1ccccc1)C(=S)c1ccccc1 [ELESCLOMOL] | 4.13 |

System: NCI-H2009;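 also: cell viability assay measuring inhibition of NCI-H2009 cell growth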
Experiment: cells
Type: functional, cell-based
Conditions: Homo sapiens
Description: SANGER: Inhibition of human NCI-H2009 cell growth in a cell viability assay.

| SMILES | IC50 [nM] |
| --- | --- |
| CN(NC(=O)CC(=O)NN(C)C(=S)c1ccccc1)C(=S)c1ccccc1 [ELESCLOMOL] | > 200 |

System: NCI-H650;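 also: growth inhibition of NCI-H650 cells, read out by a viability assay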
Experiment: cells
Type: functional, cell-based
Conditions: Homo sapiens
Description: SANGER: Inhibition of human NCI-H650 cell growth in a cell viability assay.

| SMILES | IC50 [nM] |
| --- | --- |
| CN(NC(=O)CC(=O)NN(C)C(=S)c1ccccc1)C(=S)c1ccccc1 [ELESCLOMOL] | 36.6 |

System: NUGC-3;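 also: growth inhibition of human NUGC-3 cells, read out with a cell viability assay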
Experiment: cells
Type: functional, cell-based
Conditions: Homo sapiens
Description: SANGER: Inhibition of human NUGC-3 cell growth in a cell viability assay.

| SMILES | IC50 [nM] |
| --- | --- |
| CN(NC(=O)CC(=O)NN(C)C(=S)c1ccccc1)C(=S)c1ccccc1 [ELESCLOMOL] | 7.33 |

System: OE19;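 also: growth inhibition of OE19 cells, measured through a cell viability read-out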
Experiment: cells
Type: functional, cell-based
Conditions: Homo sapiens
Description: SANGER: Inhibition of human OE19 cell growth in a cell viability assay.

| SMILES | IC50 [nM] |
| --- | --- |
| CN(NC(=O)CC(=O)NN(C)C(=S)c1ccccc1)C(=S)c1ccccc1 [ELESCLOMOL] | > 200 |

System: PANC-03-27
Experiment: cells
Type: functional, cell-based
Conditions: Homo sapiens
Description: SANGER: Inhibition of human PANC-03-27 cell growth in a cell viability assay.

| SMILES | IC50 [nM] |
| --- | --- |
| CN(NC(=O)CC(=O)NN(C)C(=S)c1ccccc1)C(=S)c1ccccc1 [ELESCLOMOL] | 39.9 |

System: RPMI-7951
Experiment: cells
Type: functional, cell-based
Conditions: Homo sapiens
Description: SANGER: Inhibition of human RPMI-7951 cell growth in a cell viability assay.

| SMILES | IC50 [nM] |
| --- | --- |
| CN(NC(=O)CC(=O)NN(C)C(=S)c1ccccc1)C(=S)c1ccccc1 [ELESCLOMOL] | 36.6 |

System: SAS;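 also: growth inhibition of SAS cells, read out with a cell viability assay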
Experiment: cells
Type: functional, cell-based
Conditions: Homo sapiens
Description: SANGER: Inhibition of human SAS cell growth in a cell viability assay.

| SMILES | IC50 [nM] |
| --- | --- |
| CN(NC(=O)CC(=O)NN(C)C(=S)c1ccccc1)C(=S)c1ccccc1 [ELESCLOMOL] | 22.5 |

System: SJRH30;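 also: growth inhibition of human SJRH30 cells, read out with a cell viability assay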
Experiment: cells
Type: functional, cell-based
Conditions: Homo sapiens
Description: SANGER: Inhibition of human SJRH30 cell growth in a cell viability assay.

| SMILES | IC50 [nM] |
| --- | --- |
| CN(NC(=O)CC(=O)NN(C)C(=S)c1ccccc1)C(=S)c1ccccc1 [ELESCLOMOL] | 100 |

System: SK-LU-1;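 also: cell viability assay measuring growth inhibition of human SK-LU-1 cells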
Experiment: cells
Type: functional, cell-based
Conditions: Homo sapiens
Description: SANGER: Inhibition of human SK-LU-1 cell growth in a cell viability assay.

| SMILES | IC50 [nM] |
| --- | --- |
| CN(NC(=O)CC(=O)NN(C)C(=S)c1ccccc1)C(=S)c1ccccc1 [ELESCLOMOL] | 10.3 |

System: SKG-IIIa;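 also: cell growth inhibition, read out with a cell viability assay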
Experiment: cells
Type: functional, cell-based
Conditions: Homo sapiens
Description: SANGER: Inhibition of human SKG-IIIa cell growth in a cell viability assay.

| SMILES | IC50 [nM] |
| --- | --- |
| CN(NC(=O)CC(=O)NN(C)C(=S)c1ccccc1)C(=S)c1ccccc1 [ELESCLOMOL] | 49.8 |

System: SN12C;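 also: growth inhibition of human SN12C cells, measured by a cell viability assay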
Experiment: cells
Type: functional, cell-based
Conditions: Homo sapiens
Description: SANGER: Inhibition of human SN12C cell growth in a cell viability assay.

| SMILES | IC50 [nM] |
| --- | --- |
| CN(NC(=O)CC(=O)NN(C)C(=S)c1ccccc1)C(=S)c1ccccc1 [ELESCLOMOL] | 28.4 |

System: SW756;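 also: growth inhibition of human SW756 cells, read out with a cell viability assay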
Experiment: cells
Type: functional, cell-based
Conditions: Homo sapiens
Description: SANGER: Inhibition of human SW756 cell growth in a cell viability assay.

| SMILES | IC50 [nM] |
| --- | --- |
| CN(NC(=O)CC(=O)NN(C)C(=S)c1ccccc1)C(=S)c1ccccc1 [ELESCLOMOL] | 4.13 |

System: SiHa;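 also: Viability-based readout of growth inhibition in SiHa cells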
Experiment: cells
Type: functional, cell-based
Conditions: Homo sapiens
Description: SANGER: Inhibition of human SiHa cell growth in a cell viability assay.

| SMILES | IC50 [nM] |
| --- | --- |
| CN(NC(=O)CC(=O)NN(C)C(=S)c1ccccc1)C(=S)c1ccccc1 [ELESCLOMOL] | 31.1 |

System: 8505C
Experiment: cells
Type: functional, cell-based
Conditions: Homo sapiens
Description: SANGER: Inhibition of human 8505C cell growth in a cell viability assay.

| SMILES | IC50 [nM] |
| --- | --- |
| CN(NC(=O)CC(=O)NN(C)C(=S)c1ccccc1)C(=S)c1ccccc1 [ELESCLOMOL] | 10.5 |

System: A 172;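 also: growth inhibition of A172 cells, measured with a cell viability readout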
Experiment: cells
Type: functional, cell-based
Conditions: Homo sapiens
Description: SANGER: Inhibition of human A172 cell growth in a cell viability assay.

| SMILES | IC50 [nM] |
| --- | --- |
| CN(NC(=O)CC(=O)NN(C)C(=S)c1ccccc1)C(=S)c1ccccc1 [ELESCLOMOL] | 20.9 |

System: AGS;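 also: growth inhibition of AGS cells, determined with a cell viability assay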
Experiment: cells
Type: functional, cell-based
Conditions: Homo sapiens
Description: SANGER: Inhibition of human AGS cell growth in a cell viability assay.

| SMILES | IC50 [nM] |
| --- | --- |
| CN(NC(=O)CC(=O)NN(C)C(=S)c1ccccc1)C(=S)c1ccccc1 [ELESCLOMOL] | 2.86 |

System: AN3-CA;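 also: growth inhibition of human AN3-CA cells measured by a cell viability assay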
Experiment: cells
Type: functional, cell-based
Conditions: Homo sapiens
Description: SANGER: Inhibition of human AN3-CA cell growth in a cell viability assay.

| SMILES | IC50 [nM] |
| --- | --- |
| CN(NC(=O)CC(=O)NN(C)C(=S)c1ccccc1)C(=S)c1ccccc1 [ELESCLOMOL] | 10.8 |

System: BT-20;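 also: cell viability assay measuring suppression of growth in human BT-20 cells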
Experiment: cells
Type: functional, cell-based
Conditions: Homo sapiens
Description: SANGER: Inhibition of human BT-20 cell growth in a cell viability assay.

| SMILES | IC50 [nM] |
| --- | --- |
| CN(NC(=O)CC(=O)NN(C)C(=S)c1ccccc1)C(=S)c1ccccc1 [ELESCLOMOL] | 35.2 |

System: CAL-12T;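 also: growth inhibition of human CAL-12T cells, read out with a cell viability assay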
Experiment: cells
Type: functional, cell-based
Conditions: Homo sapiens
Description: SANGER: Inhibition of human CAL-12T cell growth in a cell viability assay.

| SMILES | IC50 [nM] |
| --- | --- |
| CN(NC(=O)CC(=O)NN(C)C(=S)c1ccccc1)C(=S)c1ccccc1 [ELESCLOMOL] | 63 |

System: U-118-MG
Experiment: cells
Type: functional, cell-based
Conditions: Homo sapiens
Description: SANGER: Inhibition of human U-118-MG cell growth in a cell viability assay.

| SMILES | IC50 [nM] |
| --- | --- |
| CN(NC(=O)CC(=O)NN(C)C(=S)c1ccccc1)C(=S)c1ccccc1 [ELESCLOMOL] | > 200 |

System: YAPC;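 also: growth inhibition of YAPC cells, measured with a cell viability assay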
Experiment: cells
Type: functional, cell-based
Conditions: Homo sapiens
Description: SANGER: Inhibition of human YAPC cell growth in a cell viability assay.

| SMILES | IC50 [nM] |
| --- | --- |
| CN(NC(=O)CC(=O)NN(C)C(=S)c1ccccc1)C(=S)c1ccccc1 [ELESCLOMOL] | 70.3 |

System: COLO-678
Experiment: cells
Type: functional, cell-based
Conditions: Homo sapiens
Description: SANGER: Inhibition of human COLO-678 cell growth in a cell viability assay.

| SMILES | IC50 [nM] |
| --- | --- |
| CN(NC(=O)CC(=O)NN(C)C(=S)c1ccccc1)C(=S)c1ccccc1 [ELESCLOMOL] | 42.5 |

System: COLO-679
Experiment: cells
Type: functional, cell-based
Conditions: Homo sapiens
Description: SANGER: Inhibition of human COLO-679 cell growth in a cell viability assay.

| SMILES | IC50 [nM] |
| --- | --- |
| CN(NC(=O)CC(=O)NN(C)C(=S)c1ccccc1)C(=S)c1ccccc1 [ELESCLOMOL] | 14.1 |

System: COLO-680N;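 also: cell viability assay used to measure inhibition of COLO-680N cell growth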
Experiment: cells
Type: functional, cell-based
Conditions: Homo sapiens
Description: SANGER: Inhibition of human COLO-680N cell growth in a cell viability assay.

| SMILES | IC50 [nM] |
| --- | --- |
| CN(NC(=O)CC(=O)NN(C)C(=S)c1ccccc1)C(=S)c1ccccc1 [ELESCLOMOL] | 187 |
